Values quoted from earlier work in patent US9402907B2, “Pharmaceutical composition containing diamine derivative” (DAIICHI SANKYO COMPANY, LIMITED, priority 2011, dated 2016).
Like-named read-outs stand apart in the source and are kept apart here.

Question: Which solubility (aqueous solution having a pH in the neutral region (e.g., a neutral buffer)) does the source give for `CN1CCc2nc(C(=O)N[C@@H]3C[C@@H](C(=O)N(C)C)CC[C@@H]3NC(=O)C(=O)Nc3ccc(Cl)cn3)sc2C1` [Compound I, N^1-(5-chloropyridin-2-yl)-N^2-((1S,2R,4S)-4-[(dimethylamino)carbonyl]-2-{[(5-methyl-4,5,6,7-tetrahydrothiazolo[5,4-c]pyridin-2-yl)carbonyl]amino}cyclohexyl)ethanediamide] here?
Answer: Its solubility is “reduced solubility”.

Question: What about the solubility (strongly acidic aqueous solution) of the same molecule?
Answer: Its solubility is “favorable solubility”.
